Experimental data from patent US5635527A, “Carboxylic acid compound having condensed ring, salt thereof and pharmaceutical use thereof” (The Green Cross Corporation, priority 1994, dated 1997).

Test system: human platelets
Experiment: suppressive activity on ADP aggregation of human platelets
Type: cell-based
Settings: platelet rich plasma, ADP 1-5 μM, compound added 2 minutes before ADP, read-out: Suppression of platelet aggregation (IC50)
Method: Determination of suppressive activity on ADP aggregation of human platelets
Platelet rich plasma was prepared from the blood taken from healthy humans by centrifugation in the presence of 0.38% sodium citrate, and used for the determination.
Two minutes after the test compounds shown in Table 1 were added to the above-mentioned platelet rich plasma, ADP (adenosine-5'-diphosphate) (1-5 μM) having a concentration at which primary aggregation alone is observed was added, and the suppression of ADP aggregation by the compounds was evaluated. The percent suppression was determined by varying the concentration of the compounds and the concentration of the compound at which the aggregation was suppressed by 50% (IC50) was calculated, which was taken as the activity of the compound.

IC50 [nM]	Structure (SMILES)
700	N=C(N)c1ccc2sc(C(=O)Nc3ccc(OCC(=O)O)cc3)cc2c1 [Compound 134, 4-[(5-Amidinobenzo[b]thien-2-yl)carbonylamino]phenoxyacetic acid]
20	N=C(N)c1ccc2cc(C(=O)Nc3ccc(OCC(=O)O)cc3)sc2c1 [Compound 135, 4-[(6-Amidinobenzo[b]thien-2-yl)carbonylamino]phenoxyacetic acid]
80	N=C(N)c1ccc2oc(C(=O)OC3CCC(OCC(=O)O)CC3)cc2c1 (stereo not shown) [Compound 152, [4-[(5-Amidino-2-benzofuranyl)carbonyloxy]cyclohexyloxy]acetic acid]
70	CCOC(=O)CC[C@H]1CC[C@H](NC(=O)c2cc3cc(C(=N)N)ccc3o2)CC1 [Compound 159]
450	N=C(N)c1ccc2oc(C(=O)N[C@H]3CC[C@H](CCC(=O)OCCO)CC3)cc2c1 [Compound 163, 2-Hydroxyethyl trans-3-[4-[(5-amidino-2-benzofuranyl)carbonylamino]cyclohexyl]propionate]
180	N=C(N)c1ccc2oc(C(=O)N[C@H]3CC[C@H](OCC(=O)OCCO)CC3)cc2c1 [Compound 164, 2-Hydroxyethyl trans-[4-[(5-amidino-2-benzofuranyl)carbonylamino]cyclohexyloxy]acetate]
10	N=C(N)c1ccc2oc(C(=O)NC3CCC(CCC(=O)O)CC3)cc2c1 (stereo not shown) [Compound 165, 3-[4-[(5-Amidino-2-benzofuranyl)carbonylamino]cyclohexyl]propionic acid]
6	N=C(N)c1ccc2oc(C(=O)N[C@H]3CC[C@H](CCC(=O)O)CC3)cc2c1 [Compound 167, trans-3-[4-[(5-amidino-2-benzofuranyl)carbonylamino]cyclohexyl]propionic acid]
10	N=C(N)c1ccc2oc(C(=O)N[C@H]3CC[C@H](OCC(=O)O)CC3)cc2c1 [Compound 179, trans-[4-[(5-Amidino-2-benzofuranyl)carbonylamino]cyclohexyloxy]acetic acid]
30	Cc1c(C(=O)N[C@H]2CC[C@H](OCC(=O)O)CC2)oc2ccc(C(=N)N)cc12 [Compound 182, trans-[4-[(5-Amidino-3-methyl-2-benzofuranyl)carbonylamino]cyclohexyloxy]acetic acid]
150	COc1c(C(=O)N[C@H]2CC[C@H](OCC(=O)O)CC2)oc2ccc(C(=N)N)cc12 [Compound 184, trans-[4-[(5-Amidino-3-methoxy-2-benzofuranyl)carbonyl-amino]cyclohexyloxy]acetic acid]
160	CCOC(=O)CCN1CCC(NC(=O)c2cc3cc(C(=N)N)ccc3o2)CC1 [Compound 191, Ethyl 3-[4-[(5-amidino-2-benzofuranyl)carbonylamino]-piperidino]propionate]
20	N=C(N)c1ccc2oc(C(=O)NC3CCN(CCC(=O)O)CC3)cc2c1 [Compound 192, 3-[4-[(5-amidino-2-benzofuranyl)carbonylamino]piperidino]propionic acid]
320	CCOC(=O)CCN1CCC(OC(=O)c2cc3cc(C(=N)N)ccc3o2)CC1 [Compound 193, Ethyl 3-[4-[(5-amidino-2-benzofuranyl)carbonyloxy]piperidino]propionate]
20	N=C(N)c1ccc2oc(C(=O)N[C@H]3CC[C@H](NCC(=O)O)CC3)cc2c1 [Compound 195, trans-[4-[(5-Amidino-2-benzofuranyl)carbonylamino]cyclohexylamino]acetic acid]
230	CCOC(=O)CN(CC(=O)OCC)[C@H]1CC[C@H](NC(=O)c2cc3cc(C(=N)N)ccc3o2)CC1 [Compound 202, Diethyl trans-[4-[(5-amidino-2-benzofuranyl)carbonylamino]cyclohexylamino]diacetate]
1750	CC(C)(C)OC(=O)CN(CC(=O)OC(C)(C)C)[C@H]1CC[C@H](NC(=O)c2cc3cc(C(=N)N)ccc3o2)CC1 [Compound 203, di-t-butyl trans-[4-[(5-amidino-2-benzofuranyl)-carbonylamino]cyclohexylamino]diacetate]
9	N=C(N)c1ccc2oc(C(=O)N[C@H]3CC[C@H](N(CC(=O)O)CC(=O)O)CC3)cc2c1 [Compound 204, trans-[4-[(5-Amidino-2-benzofuranyl)carbonylamino]cyclohexylamino]diacetic acid]
100	CCOC(=O)CO[C@H]1CC[C@H](NC(=O)c2cc3ccc(C(=N)N)cc3[nH]2)CC1 [Compound 209, Ethyl trans-[4-[(6-Amidino-2-indolyl)carbonylamino]cyclohexyloxy]acetate]
30	N=C(N)c1ccc2cc(C(=O)N[C@H]3CC[C@H](OCC(=O)O)CC3)[nH]c2c1 [Compound 212, trans-[4-[(6-Amidino-2-indolyl)carbonylamino]cyclohexyloxy]acetic acid]
20	N=C(N)c1ccc2cc(C(=O)N[C@H]3CC[C@H](OCC(=O)O)CC3)sc2c1 [Compound 232, trans-[4-[(6-Amidinobenzo[b]thien-2-yl)carbonylamino]cyclohexyloxy]acetic acid]
10	N=C(N)c1cnc2oc(C(=O)Nc3ccc(OCC(=O)O)cc3)cc2c1 [Compound 239, 4-(5-Amidinofuro[2,3-b]pyridine-2-carbonylamino)-phenoxyacetic acid]
30	N=C(N)c1cnc2oc(C(=O)Nc3ccc(OCC(=O)O)nc3)cc2c1 [Compound 246, 5-(5-Amidinofuro[2,3-b]pyridine-2-carbonylamino)-2-pyridyloxyacetic acid]

The next lines start with the molecule.

Structure (SMILES)	IC50 [nM]
N=C(NCc1ccccc1)c1ccc2oc(C(=O)Nc3ccc(OCC(=O)O)cc3)cc2c1 [Compound 5, 4-[(5-Benzylamidino-2-benzofuranyl)carbonylamino]phenoxy-acetic acid]	100
N=C(N)c1ccc2oc(C(=O)Nc3ccc(OCC(=O)O)cc3)cc2c1 [Compound 10, 4-[(5-Amidino-2-benzofuranyl)carbonylamino]phenoxyacetic acid]	30
N=C(N)c1ccc2cc(C(=O)Nc3ccc(OCC(=O)O)cc3)oc2c1 [Compound 12, 4-[(6-Amidino-2-benzofuranyl)carbonylamino]phenoxyacetic acid]	230
Cc1c(C(=O)Nc2ccc(OCC(=O)O)cc2)oc2ccc(C(=N)N)cc12 [Compound 16, 4-[(5-Amidino-3-methyl-2-benzofuranyl)carbonylamino]phenoxyacetic acid]	40
CN(C(=O)c1cc2cc(C(=N)N)ccc2o1)c1ccc(OCC(=O)O)cc1 [Compound 21, 4-[(5-Amidino-2-benzofuranyl)carbonyl-N-methylamino]phenoxyacetic acid]	100
N=C(N)c1ccc2oc(C(=O)Nc3ccc(OCC(=O)O)c(OCC(=O)O)c3)cc2c1 [Compound 29, [[4-[(5-Amidino-2-benzofuranyl)carbonylamino]-o-phenylene]dioxy]diacetic acid]	30
COC(=O)CCc1ccc(NC(=O)c2cc3cc(C(=N)N)ccc3o2)cc1 [Compound 35, Methyl 3-[4-[(5-amidino-2-benzofuranyl)carbonylamino]phenyl]propionate]	500
N=C(N)c1ccc2oc(C(=O)Nc3ccc(CCC(=O)O)cc3)cc2c1 [Compound 37, 3-[4-[(5-Amidino-2-benzofuranyl)carbonylamino]phenyl]propionate]	40
N=C(N)c1ccc2oc(C(=O)Nc3ccc(C[C@H](N)C(=O)O)cc3)cc2c1 [Compound 46, (S)-3-[4 [(5-Amidino-2-benzofuranyl)carbonylamino]phenyl]-2-aminopropionic acid]	60
CCCCS(=O)(=O)NC(Cc1ccc(NC(=O)c2cc3cc(C(=N)N)ccc3o2)cc1)C(=O)O (stereo not shown) [Compound 48, 3-[4-[(5-Amidino-2-benzofuranyl)carbonylamino]phenyl]-2-(n-butylsulfonylamino)propionic acid]	10
N=C(N)c1ccc2oc(C(=O)Nc3ccc(C[C@H](NS(=O)(=O)C(F)(F)F)C(=O)O)cc3)cc2c1 [Compound 55, (S)-3-[4-[(5-Amidino-2-benzofuranyl)carbonylamino]phenyl]-2-(trifluoromethylsulfonylamino)propionic acid]	70
N=C(N)c1ccc2oc(C(=O)Nc3ccc(C[C@H](NC(=O)COC4CCNCC4)C(=O)O)cc3)cc2c1 [Compound 56, (S)-3-[4-[(5-Amidino-2-benzofuranyl)carbonylamino]phenyl]2-[(4-piperidinyloxy)acetylamino]propionic acid]	30
COc1ccc(CCC(=O)N[C@@H](Cc2ccc(NC(=O)c3cc4cc(C(=N)N)ccc4o3)cc2)C(=O)O)cc1 [Compound 61, (S)-3-[4-[(5-Amidino-2-benzofuranyl)carbonylamino]phenyl]-2-[3-(4-methoxyphenyl)propionylamino]propionic acid]	30
N=C(N)c1ccc2oc(C(=O)Nc3ccc(NCC(=O)O)cc3)cc2c1 [Compound 70, [4-[(5-Amidino-2-benzofuranyl)carbonylamino]anilino]acetic acid]	150
CCCCC(=O)N(CC(=O)O)c1ccc(NC(=O)c2cc3cc(C(=N)N)ccc3o2)cc1 [Compound 74, [4-[(5-Amidino-2-benzofuranyl)carbonylamino]-N-(n-valeryl)anilino]acetic acid]	230
N=C(N)c1ccc2cc(C(=O)Nc3ccc(OCC(=O)O)cc3)[nH]c2c1 [Compound 95, 4-[(6-Amidino-2-indolyl)carbonylamino]phenoxyacetic acid]	60
Cn1c(C(=O)Nc2ccc(OCC(=O)O)cc2)cc2ccc(C(=N)N)cc21 [Compound 118, 4-[(6-Amidino-1-methyl-2-indolyl)carbonylamino]phenoxyacetic acid]	200
